# US6706663B2, “Herbicidal 3-heterocyclic substituted benzisothiazole and benzisoxazole compounds” (Wyeth, priority 2000, dated 2004)
# Key:
# [1] = tested on: IPOHE (Ipomoea hederacea); experiment: Postemergence herbicidal evaluation; assay type: in vivo, (L.) Jacq.
# Method in brief: (§1)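 Visual 0–9 injury scores versus control plants, covering stand, vigour, malformation, size, chlorosis and general appearance, taken four to five weeks post-spray and averaged over replicate tests. Plants were sprayed at roughly two weeks old and held on greenhouse benches.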
# [2] = tested on: ECHCG (Echinochloa crus-galli); experiment: Postemergence herbicidal evaluation; assay type: in vivo, (L.) Beau
# Method in brief: as §1
# SETVI (Setaria viridis) [3] = experiment: Postemergence herbicidal evaluation; assay type: in vivo, (L.) Beau
# Method in brief: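 Seedlings about two weeks old were sprayed with compound in 50/50 acetone/water plus 0.5% TWEEN 20, at the equivalent of about 0.0040 to 1.000 kg/ha. Plants were kept in a greenhouse and visually rated 0-9 against a control four to five weeks after treatment. Repeat tests were averaged.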
# [4] = tested on: GLXMAW (Soybean, Williams); experiment: Postemergence herbicidal evaluation; assay type: in vivo, Glycine max, (L.) Merr. cv Williams
# Method in brief: as §1
# ORYSAT (Rice, Tebonnet) [5] = experiment: Postemergence herbicidal evaluation; assay type: in vivo, Oryza sativa, (L.) Tebonnet
# Method in brief: as §1
# [6] = tested on: TRZAWR (Wheat, Winter, cv Riband); experiment: Postemergence herbicidal evaluation; assay type: in vivo, Triticum aestivum
# Method in brief: as §1
# ZEAMX (Corn, Field) = experiment: Postemergence herbicidal evaluation; assay type: in vivo, Zea mays, L.
# Method in brief: as §1
# [7] = tested on: ABUTH (Abutilon theophrasti); experiment: Preemergence herbicidal evaluation; assay type: in vivo, Medic.; conditions: preemergence, rated 4-5 weeks after treatment
# [8] = tested on: AMBEL (Ambrosia artemisifolia); experiment: Preemergence herbicidal evaluation; assay type: in vivo, L.; conditions: preemergence, rated 4-5 weeks after treatment
# Method in brief: (§2)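 Preemergence soil spray, aq. acetone; greenhouse; visual 0–9 score vs control at 4–5 wk.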
# [9] = tested on: CASOB (Cassia obtusifolia); experiment: Preemergence herbicidal evaluation; assay type: in vivo, L.; conditions: preemergence, rated 4-5 weeks after treatment
# Method in brief: as §2
# [10] = tested on: CHEAL (Chenopodium album); experiment: Preemergence herbicidal evaluation; assay type: in vivo, L.; conditions: preemergence, rated 4-5 weeks after treatment
# Method in brief: as §2
# GALAP (Galium aparine) = experiment: Preemergence herbicidal evaluation; assay type: in vivo; conditions: preemergence, rated 4-5 weeks after treatment
# Method in brief: as §2
# [11] = tested on: ECHCG (Echinochloa crus-galli); experiment: Preemergence herbicidal evaluation; assay type: in vivo, (L.) Beau; conditions: preemergence, rated 4-5 weeks after treatment
# Method in brief: as §2
# SETVI (Setaria viridis) [12] = experiment: Preemergence herbicidal evaluation; assay type: in vivo, (L.) Beau; conditions: preemergence, rated 4-5 weeks after treatment
# Method in brief: as §2
# ORYSAT (Rice, Tebonnet) [13] = experiment: Preemergence herbicidal evaluation; assay type: in vivo, Oryza sativa, (L.) Tebonnet; conditions: preemergence, rated 4-5 weeks after treatment
# [14] = tested on: TRZAWR (Wheat, Winter, cv Riband); experiment: Preemergence herbicidal evaluation; assay type: in vivo, Triticum aestivum; conditions: preemergence, rated 4-5 weeks after treatment
# Method in brief: as §2
# [15] = tested on: ECHORC (Echinochloa oryzoides); experiment: Flooded paddy, preemergence weed control; assay type: in vivo, Echinochloa oryzoides (Ard.) Fritsch.; conditions: rated 3-4 weeks after treatment, 0-9 rating scale
# Method in brief: (§3)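 Under paddy conditions, seeds or vegetative propagules go into the top 0.5 cm of silt loam; the soil is then flooded to 1.5–3 cm and kept so. Treated pots stay in a greenhouse; response is rated 0-9 visually versus control.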
# [16] = tested on: CYPSE (Cyperus serotinus); experiment: Flooded paddy, preemergence weed control; assay type: in vivo, Rottb.; conditions: rated 3-4 weeks after treatment, 0-9 rating scale
# Method in brief: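 Seeds or propagules were planted 0.5 cm deep in silt loam and flooded to 1.5–3 cm. Compounds in 50/50 v/v aqueous/acetone were pipetted into the flood water at about 0.0080 to 0.1250 kg/ha. After 3–4 weeks in the greenhouse, effect was rated visually on a 0–9 scale versus untreated control.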
# [17] = tested on: MOOVA (Monochoria vaginalis); experiment: Flooded paddy, preemergence weed control; assay type: in vivo, Presl.; conditions: rated 3-4 weeks after treatment, 0-9 rating scale
# Method in brief: as §3
structure (smiles),measurement,setting,value
"Cc1ccsc1-c1nsc2ccc(-n3c(=O)cc(C(F)(F)F)n(C)c3=O)cc12 [Compound 4, 1-methyl-3-[3-(3-methyl-2-thienyl)-1,2-benzisothiazol-5-yl]-6-(trifluoromethyl)uracil]","Postemergence herbicidal rating, IPOHE",[1]; rate 0.0320 kg/ha,8.6
same,"Postemergence herbicidal rating, IPOHE",[1]; rate 0.0620 kg/ha,9.0
same,"Postemergence herbicidal rating, IPOHE",[1]; rate 0.1250 kg/ha,9.0
same,"Postemergence herbicidal rating, ECHCG",[2]; rate 0.0320 kg/ha,2.0
same,"Postemergence herbicidal rating, ECHCG",[2]; rate 0.0620 kg/ha,2.8
same,"Postemergence herbicidal rating, ECHCG",[2]; rate 0.1250 kg/ha,1.7
same,"Postemergence herbicidal rating, SETVI",SETVI (Setaria viridis) [3]; rate 0.0320 kg/ha,5.0
same,"Postemergence herbicidal rating, SETVI",SETVI (Setaria viridis) [3]; rate 0.0620 kg/ha,6.3
same,"Postemergence herbicidal rating, SETVI",SETVI (Setaria viridis) [3]; rate 0.1250 kg/ha,7.3
same,"Postemergence herbicidal rating, GLXMAW",[4]; rate 0.0320 kg/ha,6.2
same,"Postemergence herbicidal rating, GLXMAW",[4]; rate 0.0620 kg/ha,6.8
same,"Postemergence herbicidal rating, GLXMAW",[4]; rate 0.1250 kg/ha,7.3
same,"Postemergence herbicidal rating, ORYSAT","ORYSAT (Rice, Tebonnet) [5]; rate 0.0320 kg/ha",2.8
same,"Postemergence herbicidal rating, ORYSAT","ORYSAT (Rice, Tebonnet) [5]; rate 0.0620 kg/ha",3.8
same,"Postemergence herbicidal rating, ORYSAT","ORYSAT (Rice, Tebonnet) [5]; rate 0.1250 kg/ha",4.5
same,"Postemergence herbicidal rating, TRZAWR",[6]; rate 0.0320 kg/ha,3.7
same,"Postemergence herbicidal rating, TRZAWR",[6]; rate 0.0620 kg/ha,4.2
same,"Postemergence herbicidal rating, TRZAWR",[6]; rate 0.1250 kg/ha,5.2
same,"Postemergence herbicidal rating, ZEAMX","ZEAMX (Corn, Field); rate 0.0320 kg/ha",4.4
same,"Postemergence herbicidal rating, ZEAMX","ZEAMX (Corn, Field); rate 0.0620 kg/ha",4.5
same,"Postemergence herbicidal rating, ZEAMX","ZEAMX (Corn, Field); rate 0.1250 kg/ha",5.0
same,ABUTH preemergence herbicidal rating,[7]; Rate 0.0620 kg/ha,7.8
same,ABUTH preemergence herbicidal rating,[7]; Rate 0.1250 kg/ha,8.9
same,ABUTH preemergence herbicidal rating,[7]; Rate 0.2500 kg/ha,9.0
same,AMBEL preemergence herbicidal rating,[8]; Rate 0.0620 kg/ha,5.9
same,AMBEL preemergence herbicidal rating,[8]; Rate 0.1250 kg/ha,7.3
same,AMBEL preemergence herbicidal rating,[8]; Rate 0.2500 kg/ha,8.9
same,CASOB preemergence herbicidal rating,[9]; Rate 0.0620 kg/ha,1.3
same,CASOB preemergence herbicidal rating,[9]; Rate 0.1250 kg/ha,3.4
same,CASOB preemergence herbicidal rating,[9]; Rate 0.2500 kg/ha,5.0
same,CHEAL preemergence herbicidal rating,[10]; Rate 0.0620 kg/ha,9.0
same,CHEAL preemergence herbicidal rating,[10]; Rate 0.1250 kg/ha,9.0
same,CHEAL preemergence herbicidal rating,[10]; Rate 0.2500 kg/ha,8.0
same,GALAP preemergence herbicidal rating,GALAP (Galium aparine); Rate 0.0620 kg/ha,5.0
same,GALAP preemergence herbicidal rating,GALAP (Galium aparine); Rate 0.1250 kg/ha,8.0
same,GALAP preemergence herbicidal rating,GALAP (Galium aparine); Rate 0.2500 kg/ha,9.0
same,ECHCG preemergence herbicidal rating,[11]; Rate 0.0620 kg/ha,7.0
same,ECHCG preemergence herbicidal rating,[11]; Rate 0.1250 kg/ha,8.3
same,ECHCG preemergence herbicidal rating,[11]; Rate 0.2500 kg/ha,9.0
same,SETVI preemergence herbicidal rating,SETVI (Setaria viridis) [12]; Rate 0.0620 kg/ha,8.8
same,SETVI preemergence herbicidal rating,SETVI (Setaria viridis) [12]; Rate 0.1250 kg/ha,9.0
same,SETVI preemergence herbicidal rating,SETVI (Setaria viridis) [12]; Rate 0.2500 kg/ha,9.0
same,ORYSAT preemergence herbicidal rating,"ORYSAT (Rice, Tebonnet) [13]; Rate 0.0620 kg/ha",1.4
same,ORYSAT preemergence herbicidal rating,"ORYSAT (Rice, Tebonnet) [13]; Rate 0.1250 kg/ha",1.9
same,ORYSAT preemergence herbicidal rating,"ORYSAT (Rice, Tebonnet) [13]; Rate 0.2500 kg/ha",2.8
same,TRZAWR preemergence herbicidal rating,[14]; Rate 0.0620 kg/ha,1.2
same,TRZAWR preemergence herbicidal rating,[14]; Rate 0.1250 kg/ha,2.5
same,TRZAWR preemergence herbicidal rating,[14]; Rate 0.2500 kg/ha,4.3
same,"herbicidal rating, ECHORC",[15]; rate 0.0080 kg/ha,4.0
same,"herbicidal rating, ECHORC",[15]; rate 0.0320 kg/ha,9.0
same,"herbicidal rating, ECHORC",[15]; rate 0.1250 kg/ha,9.0
same,"herbicidal rating, CYPSE",[16]; rate 0.0080 kg/ha,0.0
same,"herbicidal rating, CYPSE",[16]; rate 0.0320 kg/ha,6.5
same,"herbicidal rating, CYPSE",[16]; rate 0.1250 kg/ha,9.0
same,"herbicidal rating, MOOVA",[17]; rate 0.0080 kg/ha,9.0
same,"herbicidal rating, MOOVA",[17]; rate 0.0320 kg/ha,9.0
same,"herbicidal rating, MOOVA",[17]; rate 0.1250 kg/ha,9.0
"Cn1ccnc1-c1nsc2ccc(-n3c(=O)cc(C(F)(F)F)n(C)c3=O)cc12 [Compound 5, 1-methyl-3-[3-(1-methylimidazol-2-yl)-1,2-benzisothiazol-5-yl]-6-(trifluoromethyl)uracil]","Postemergence herbicidal rating, IPOHE",[1]; rate 0.0320 kg/ha,9.0
same,"Postemergence herbicidal rating, IPOHE",[1]; rate 0.0620 kg/ha,9.0
same,"Postemergence herbicidal rating, ECHCG",[2]; rate 0.0320 kg/ha,0.0
same,"Postemergence herbicidal rating, ECHCG",[2]; rate 0.0620 kg/ha,0.0
same,"Postemergence herbicidal rating, SETVI",SETVI (Setaria viridis) [3]; rate 0.0320 kg/ha,0.0
same,"Postemergence herbicidal rating, SETVI",SETVI (Setaria viridis) [3]; rate 0.0620 kg/ha,1.0
same,"Postemergence herbicidal rating, GLXMAW",[4]; rate 0.0320 kg/ha,5.5
same,"Postemergence herbicidal rating, GLXMAW",[4]; rate 0.0620 kg/ha,6.0
same,"Postemergence herbicidal rating, ORYSAT","ORYSAT (Rice, Tebonnet) [5]; rate 0.0320 kg/ha",2.0
same,"Postemergence herbicidal rating, ORYSAT","ORYSAT (Rice, Tebonnet) [5]; rate 0.0620 kg/ha",3.0
same,"Postemergence herbicidal rating, TRZAWR",[6]; rate 0.0320 kg/ha,2.5
same,"Postemergence herbicidal rating, TRZAWR",[6]; rate 0.0620 kg/ha,3.5
same,"Postemergence herbicidal rating, ZEAMX","ZEAMX (Corn, Field); rate 0.0320 kg/ha",4.5
same,"Postemergence herbicidal rating, ZEAMX","ZEAMX (Corn, Field); rate 0.0620 kg/ha",5.5
same,ABUTH preemergence herbicidal rating,[7]; Rate 0.0620 kg/ha,7.0
same,ABUTH preemergence herbicidal rating,[7]; Rate 0.1250 kg/ha,9.0
same,ABUTH preemergence herbicidal rating,[7]; Rate 0.2500 kg/ha,9.0
same,AMBEL preemergence herbicidal rating,[8]; Rate 0.0620 kg/ha,8.5
same,AMBEL preemergence herbicidal rating,[8]; Rate 0.1250 kg/ha,9.0
same,AMBEL preemergence herbicidal rating,[8]; Rate 0.2500 kg/ha,9.0
same,CASOB preemergence herbicidal rating,[9]; Rate 0.0620 kg/ha,0.0
same,CASOB preemergence herbicidal rating,[9]; Rate 0.1250 kg/ha,1.0
same,CASOB preemergence herbicidal rating,[9]; Rate 0.2500 kg/ha,5.5
same,CHEAL preemergence herbicidal rating,[10]; Rate 0.0620 kg/ha,9.0
same,CHEAL preemergence herbicidal rating,[10]; Rate 0.1250 kg/ha,9.0
same,CHEAL preemergence herbicidal rating,[10]; Rate 0.2500 kg/ha,9.0
same,GALAP preemergence herbicidal rating,GALAP (Galium aparine); Rate 0.0620 kg/ha,4.0
same,GALAP preemergence herbicidal rating,GALAP (Galium aparine); Rate 0.1250 kg/ha,5.0
same,GALAP preemergence herbicidal rating,GALAP (Galium aparine); Rate 0.2500 kg/ha,7.0
same,ECHCG preemergence herbicidal rating,[11]; Rate 0.0620 kg/ha,2.5
same,ECHCG preemergence herbicidal rating,[11]; Rate 0.1250 kg/ha,8.0
same,ECHCG preemergence herbicidal rating,[11]; Rate 0.2500 kg/ha,9.0
same,SETVI preemergence herbicidal rating,SETVI (Setaria viridis) [12]; Rate 0.0620 kg/ha,9.0
same,SETVI preemergence herbicidal rating,SETVI (Setaria viridis) [12]; Rate 0.1250 kg/ha,9.0
same,SETVI preemergence herbicidal rating,SETVI (Setaria viridis) [12]; Rate 0.2500 kg/ha,9.0
same,ORYSAT preemergence herbicidal rating,"ORYSAT (Rice, Tebonnet) [13]; Rate 0.0620 kg/ha",3.0
same,ORYSAT preemergence herbicidal rating,"ORYSAT (Rice, Tebonnet) [13]; Rate 0.1250 kg/ha",5.0
same,ORYSAT preemergence herbicidal rating,"ORYSAT (Rice, Tebonnet) [13]; Rate 0.2500 kg/ha",7.5
same,TRZAWR preemergence herbicidal rating,[14]; Rate 0.0620 kg/ha,5.0
same,TRZAWR preemergence herbicidal rating,[14]; Rate 0.1250 kg/ha,7.0
same,TRZAWR preemergence herbicidal rating,[14]; Rate 0.2500 kg/ha,8.0
same,"herbicidal rating, ECHORC",[15]; rate 0.0320 kg/ha,0.0
same,"herbicidal rating, ECHORC",[15]; rate 0.1250 kg/ha,2.0
same,"herbicidal rating, CYPSE",[16]; rate 0.0320 kg/ha,0.0
same,"herbicidal rating, CYPSE",[16]; rate 0.1250 kg/ha,0.0
same,"herbicidal rating, MOOVA",[17]; rate 0.0320 kg/ha,2.0
same,"herbicidal rating, MOOVA",[17]; rate 0.1250 kg/ha,9.0
